Test results reported in the supplement of paper PMC4862054.

What was measured:
Test in all cases: normalised viability (% of control), CellTiter-Blue; higher = more viable cells (about 100 = DMSO control)
Details in all cases: incubation time: 72 h
[1] = test system: CAL-148
Protocol: (§1)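 DSRT, CellTiter-Blue viability, 72 h incubation. Signal is normalised to DMSO and benzethonium chloride controls. Value is the normalised response at dose 6.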

[2] = test system: DU-4475
Protocol: as §1

[3] = test system: MDA-MB-453
Protocol: as §1

[4] = test system: CAL-51
Protocol: as §1

[5] = test system: CAL-85-1
Protocol: as §1

[6] = test system: HDQ-P1
Protocol: as §1

[7] = test system: HCC1937
Protocol: (§2)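 DSRT, CellTiter-Blue viability, 72 h incubation. Signal is normalised to DMSO and benzethonium chloride controls. Value is the normalised response at dose 3.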

[8] = test system: HCC1599
Protocol: as §2

[9] = test system: CAL-120
Protocol: as §2

[10] = test system: CAL-148; remark: listed apart in the source
Protocol: as §2

[11] = test system: MDA-MB-468
Protocol: as §2

[12] = test system: MDA-MB-231
Protocol: as §2

[13] = test system: BT-474
Protocol: as §2

[14] = test system: DU-4475; remark: listed apart in the source
Protocol: as §2

[15] = test system: BT-549
Protocol: as §2

[16] = test system: MDA-MB-453; remark: listed apart in the source
Protocol: as §2

[17] = test system: CAL-51; remark: listed apart in the source
Protocol: as §2

[18] = test system: CAL-85-1; remark: listed apart in the source
Protocol: as §2

[19] = test system: HCC1143
Protocol: as §2

[20] = test system: HDQ-P1; remark: listed apart in the source
Protocol: as §2

[21] = test system: Hs578T
Protocol: as §2

[22] = test system: MFM-223
Protocol: as §2

[23] = test system: MDA-MB-436
Protocol: as §2

[24] = test system: SK-BR-3
Protocol: as §2

[25] = test system: CAL-148; remark: listed apart in the source
Protocol: (§3)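 DSRT, CellTiter-Blue viability, 72 h incubation. Signal is normalised to DMSO and benzethonium chloride controls. Value is the normalised response at dose 9.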

[26] = test system: MDA-MB-453; remark: listed apart in the source
Protocol: as §3

[27] = test system: CAL-51; remark: listed apart in the source
Protocol: as §3

[28] = test system: HDQ-P1; remark: listed apart in the source
Protocol: as §3

[29] = test system: CAL-148; remark: listed apart in the source
In short: (§4)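 Vehicle (100) and a positive kill control (0) anchored the normalisation of each plate, and Z'-factor was used for quality control. Breast cancer cell lines in 20 µl suspension were incubated 72 h over compound in 5 µl medium in 384-well plates, followed by CellTiter-Blue at 560/590 nm. The value is normalised viability at a single listed concentration of the series.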

[30] = test system: MDA-MB-453; remark: listed apart in the source
In short: as §4

Question: Which results are given for `C[C@]12CC[C@H](O)CC1=CC[C@@H]1[C@@H]2CC[C@]2(C)C(c3cccnc3)=CC[C@@H]12` [Abiraterone]?
Answer: normalised viability ([1]; 150 nM): 93.8%; normalised viability ([2]; 150 nM): 92.2%; normalised viability ([3]; 150 nM): 105%; normalised viability ([4]; 150 nM): 102%; normalised viability ([5]; 150 nM): 93.9%; normalised viability ([6]; 150 nM): 79.2%; normalised viability ([7]; 50 nM): 98.9%; normalised viability ([8]; 50 nM): 102%; normalised viability ([9]; 50 nM): 87.6%; normalised viability ([10]; 5 nM): 86.7%; normalised viability ([11]; 50 nM): 107%; normalised viability ([12]; 50 nM): 95.6%; normalised viability ([13]; 50 nM): 112%; normalised viability ([14]; 5 nM): 94%; normalised viability ([15]; 50 nM): 108%; normalised viability ([16]; 5 nM): 91.6%; normalised viability ([17]; 5 nM): 106%; normalised viability ([18]; 5 nM): 91.1%; normalised viability ([19]; 50 nM): 75.2%; normalised viability ([20]; 5 nM): 109%; normalised viability ([21]; 50 nM): 91.7%; normalised viability ([22]; 50 nM): 98%; normalised viability ([23]; 50 nM): 126%; normalised viability ([24]; 50 nM): 73.4%; normalised viability ([25]; 5000 nM): 92.1%; normalised viability ([26]; 5000 nM): 89.2%; normalised viability ([27]; 5000 nM): 92%; normalised viability ([28]; 5000 nM): 113%; normalised viability ([29]; 50 nM): 90.7%; normalised viability ([30]; 50 nM): 102%

Question: `CC(C)(C#N)c1cc(Cn2cncn2)cc(C(C)(C)C#N)c1` [Anastrozole] was tested. Which normalised viability ([1]; 300 nM) did it give?
Answer: The normalised viability was 96.1%.

Question: What about the normalised viability ([2]; 300 nM) of the same compound?
Answer: The normalised viability was 83.5%.

Question: What about the normalised viability ([3]; 300 nM) of the same compound?
Answer: The normalised viability was 84.1%.

Question: What about the normalised viability ([4]; 300 nM) of the same compound?
Answer: Its normalised viability is 102%.

Question: And the normalised viability ([5]; 300 nM)?
Answer: Its normalised viability is 93.2%.

Question: What about the normalised viability ([6]; 300 nM) of the same compound?
Answer: The normalised viability was 78%.

Question: And the normalised viability ([7]; 100 nM)?
Answer: The normalised viability was 93.1%.

Question: And the normalised viability ([8]; 100 nM)?
Answer: Its normalised viability is 102%.

Question: And the normalised viability ([9]; 100 nM)?
Answer: The normalised viability was 88.5%.

Question: What about the normalised viability ([10]; 10 nM) of the same compound?
Answer: The normalised viability was 86.8%.

Question: And the normalised viability ([11]; 100 nM)?
Answer: Its normalised viability is 107%.

Question: And the normalised viability ([12]; 100 nM)?
Answer: The normalised viability was 92.7%.

Question: What about the normalised viability ([13]; 100 nM) of the same compound?
Answer: Its normalised viability is 101%.

Question: And the normalised viability ([14]; 10 nM)?
Answer: The normalised viability was 98.6%.

Question: What about the normalised viability ([15]; 100 nM) of the same compound?
Answer: Its normalised viability is 95.7%.

Question: What about the normalised viability ([16]; 10 nM) of the same compound?
Answer: Its normalised viability is 97.7%.

Question: What about the normalised viability ([17]; 10 nM) of the same compound?
Answer: The normalised viability was 109%.

Question: And the normalised viability ([18]; 10 nM)?
Answer: The normalised viability was 90.7%.

Question: And the normalised viability ([19]; 100 nM)?
Answer: The normalised viability was 100%.

Question: And the normalised viability ([20]; 10 nM)?
Answer: The normalised viability was 99.2%.

Question: What about the normalised viability ([21]; 100 nM) of the same compound?
Answer: Its normalised viability is 88.4%.

Question: And the normalised viability ([22]; 100 nM)?
Answer: The normalised viability was 94.2%.

Question: And the normalised viability ([23]; 100 nM)?
Answer: Its normalised viability is 96%.

Question: And the normalised viability ([24]; 100 nM)?
Answer: The normalised viability was 77.3%.

Question: What about the normalised viability ([25]; 10000 nM) of the same compound?
Answer: Its normalised viability is 94.2%.

Question: What about the normalised viability ([26]; 10000 nM) of the same compound?
Answer: The normalised viability was 79.8%.

Question: What about the normalised viability ([27]; 10000 nM) of the same compound?
Answer: Its normalised viability is 104%.

Question: And the normalised viability ([28]; 10000 nM)?
Answer: Its normalised viability is 98.6%.

Question: What about the normalised viability ([29]; 100 nM) of the same compound?
Answer: The normalised viability was 98.1%.

Question: What about the normalised viability ([30]; 100 nM) of the same compound?
Answer: The normalised viability was 94.1%.

Question: For `O=C(O)CCCc1ccc(N(CCCl)CCCl)cc1` [Chlorambucil], which normalised viability ([1]; 300 nM) is on record?
Answer: The normalised viability was 110%.

Question: And the normalised viability ([2]; 300 nM)?
Answer: The normalised viability was 90.9%.

Question: And the normalised viability ([3]; 300 nM)?
Answer: Its normalised viability is 103%.

Question: And the normalised viability ([4]; 300 nM)?
Answer: Its normalised viability is 104%.

Question: And the normalised viability ([5]; 300 nM)?
Answer: The normalised viability was 105%.

Question: And the normalised viability ([6]; 300 nM)?
Answer: The normalised viability was 85.8%.

Question: And the normalised viability ([7]; 100 nM)?
Answer: The normalised viability was 87.9%.

Question: What about the normalised viability ([8]; 100 nM) of the same compound?
Answer: The normalised viability was 132%.

Question: And the normalised viability ([9]; 100 nM)?
Answer: Its normalised viability is 109%.

Question: And the normalised viability ([10]; 10 nM)?
Answer: Its normalised viability is 100%.

Question: What about the normalised viability ([11]; 100 nM) of the same compound?
Answer: The normalised viability was 99.8%.

Question: And the normalised viability ([12]; 100 nM)?
Answer: Its normalised viability is 103%.

Question: And the normalised viability ([13]; 100 nM)?
Answer: The normalised viability was 115%.

Question: What about the normalised viability ([14]; 10 nM) of the same compound?
Answer: Its normalised viability is 109%.

Question: What about the normalised viability ([15]; 100 nM) of the same compound?
Answer: Its normalised viability is 100%.

Question: What about the normalised viability ([16]; 10 nM) of the same compound?
Answer: Its normalised viability is 106%.

Question: And the normalised viability ([17]; 10 nM)?
Answer: Its normalised viability is 107%.

Question: What about the normalised viability ([18]; 10 nM) of the same compound?
Answer: The normalised viability was 96%.

Question: And the normalised viability ([19]; 100 nM)?
Answer: Its normalised viability is 104%.

Question: And the normalised viability ([20]; 10 nM)?
Answer: Its normalised viability is 112%.

Question: And the normalised viability ([21]; 100 nM)?
Answer: The normalised viability was 106%.

Question: What about the normalised viability ([22]; 100 nM) of the same compound?
Answer: The normalised viability was 95.5%.

Question: What about the normalised viability ([23]; 100 nM) of the same compound?
Answer: Its normalised viability is 95.8%.

Question: What about the normalised viability ([24]; 100 nM) of the same compound?
Answer: The normalised viability was 97.8%.

Question: What about the normalised viability ([25]; 10000 nM) of the same compound?
Answer: Its normalised viability is 89.7%.

Question: And the normalised viability ([26]; 10000 nM)?
Answer: The normalised viability was 65%.

Question: What about the normalised viability ([27]; 10000 nM) of the same compound?
Answer: The normalised viability was 96.5%.

Question: And the normalised viability ([28]; 10000 nM)?
Answer: The normalised viability was 115%.

Question: And the normalised viability ([29]; 100 nM)?
Answer: Its normalised viability is 103%.

Question: What about the normalised viability ([30]; 100 nM) of the same compound?
Answer: Its normalised viability is 114%.
